This experiment deals with human sperm. The experiment is described as follows: Efficacy of metal salts, albumin and dextran on motility of human sperm in vitro. The settings on record: for concentration at which spermiostatic (motility of sperm arrested): human sperm in vitro.

On to `O=S(=O)([O-])[O-].[Cu+2]` [copper sulfate], for which the “concentration at which spermiostatic (motility of sperm arrested)” value (shortened to “concentration at which spermiostatic”) is listed as 6.25 mM. Also, the immobilization of sperm (25 mM solution) was found to be 93.3%. In addition, under “37.5 mM solution”, the immobilization of sperm entry is “completely immobilized all the sperm”. Further, for the setting “2.5% dextran added to 6.5-mM copper sulfate solution”, the additional spermiostatic effect entry is “no additional spermiostatic effect”.
With `[Cl-].[Cl-].[Mg+2]` [magnesium chloride], the “concentration at which spermiostatic” value is reported as 35 mM.
In the case of ferrous sulfate, the “concentration at which spermiostatic” value was found to be 10 mM.
Regarding ferrous gluconate, the “concentration at which spermiostatic” value came out at 12.5 mM. For the same compound, for the setting “25 mM solution”, the immobilization of sperm worked out at 97.4%. Also, where the note is “37.5 mM solution”, the immobilization of sperm result was “completely immobilized all the sperm”. Also, the additional spermiostatic effect entry (2.5% dextran added to 12.5-mM ferrous gluconate solution) is recorded as “no additional spermiostatic effect”. For the same compound, the “enhancement of the spermiostatic effect” value (2.5% dextran and 5% albumin added to 12.5 mM ferrous gluconate) was “no enhancement of the spermiostatic effect”.
In the case of “dihydrate ferrous gluconate [dihydrate form of ferrous gluconate]”, the “onset of spermiostatic effect” value (dihydrate form of ferrous gluconate) was “immediate”.
As for `[Ca+2].[Cl-].[Cl-]` [calcium chloride], the “concentration at which spermiostatic” value is recorded as 25 mM.

These data come from patent publication US20040013730A1, “Non-hormonal vaginal contraceptive” (priority 2003, published 2004).
